Assay results published in patent US20190167676A1, “METHODS FOR IMPROVING RESISTANCE TO SKELETAL MUSCLE FATIGUE” (Cytokinetics, Inc., priority 2012, published 2019).

Legend:
rat FDB muscle = assay: Isometric fatigue protocol in isolated rat FDB muscle; conditions: 5 μM
Protocol: The isometric fatigue protocol was based on published studies (Germinario et al, 2004). Isolated rat FDB muscles were incubated at 4° C. with either 0.1% DMSO Krebs buffer or buffer containing 5 μM Compound A for 30 minutes. The tissues were then transferred to an isometric force transducer at 30° C. with the same concentration of DMSO or Compound A. Muscles were stimulated via field electrodes with supra maximal voltage to tetanus (120 Hz stimulation, 1 ms pulses, 350 ms duration) every minute and the length adjusted to achieve maximal tension development (Lo) which was recorded. The stimulation frequency was adjusted to achieve 50% of maximal force for each tissue: The average stimulation frequency required to achieve FMax 50% (mean +/− sd) for 0.1% DMSO was: 32.4 +/− 3.3 Hz, and for 5 μM Compound A it was 20.5 +/− 4.9 Hz. The muscles were then stimulated every six seconds for 15 minutes with field electrodes (1 ms stimulus, 350 ms trains) which produced a rapid drop in developed force over the course of 900 seconds for both the control fibers and Compound A fibers, with the control group showing a greater and more rapid drop in tension than the Compound A group.

rat EDL muscle = assay: Fatigue in rat EDL muscle in situ; format: in vivo
Source text: Rats were placed under anesthesia using isoflurane and the skin around the experimental leg was removed. The distal end of the EDL muscle and its associated tendon were then isolated. The rat was then placed on the platform of an Aurora in-situ muscle analysis rig (806C), maintained at body temperature via a circulating water system. The knee was immobilized in a clamp between two sharpened screws and the distal tendon cut and tied to the arm of a force transducer (Aurora Scientific, Ontario, Canada) using a silk suture. The muscle was stimulated directly via the peroneal nerve. For isolation of the nerve, a 1 cm incision was made at the upper thigh and the overlying gastrocnemius muscle was cut to expose an approximate 5 mm stretch of the peroneal nerve. […] Muscle contractile properties were assessed by applying an electrical current to the nerve and recording the force generated by the muscle via a servomotor. […]
With the rat in situ EDL muscle preparation described in Example 3, a fatiguing protocol was utilized where muscle was stimulated for 600 seconds. […] To elicit muscle fatigue, the EDL muscle was stimulated with 350 msec electrical trains every 3 seconds for ten minutes at a frequency producing an initial force equal to 50% of maximal (FMax50) as determined by the force-frequency relationship for each animal.

[1] = test system: rat plantarflexor muscles; assay: Rat plantar flexor force and power in situ; format: in vivo
Source text: Rats were placed under anesthesia using isoflurane and the sciatic nerve of the experimental leg exposed. The rat was then placed on the platform of an Aurora in-situ muscle analysis rig (806C), maintained at body temperature via a circulating water system. The knee was immobilized in a clamp between two sharpened screws and the foot attached securely to the footplate of a force transducer (Aurora Scientific, Ontario, Canada) using laboratory tape. The muscle was stimulated directly via the sciatic nerve. For isolation of the nerve, a 1 cm incision was made at the upper thigh and the overlying muscle was dissected to expose an approximate 5 mm stretch of the sciatic nerve. This was then dissected free of surrounding connective tissue and a pair of stainless steel needle electrodes (0.10 mm) were hooked around the exposed nerve. The peroneal branch was severed to remove innervation to the plantar-extensor muscle groups. Muscle contractile properties were assessed by applying an electrical current to the nerve and recording the force generated by the muscle via a servomotor. Isokinetic contractile properties were assessed as force generated during a pre-programmed movement of the footplate. Footplate movements were 0.7 radians in size ([…]).
Solutions of Compound A (50% PEG300/10% EtOH/40% cavitron formulation) were administered via a femoral vein catheter as a single slow bolus over a 2 min period, with a maximal dosage volume of 5 ml/Kg. During the experiment, blood was drawn via the tail vein for compound concentration analysis. At the end of each assay, the length and weight of the muscle was recorded, and measured force normalized to the mass of the muscle (N/g).
Compound A increased force generation throughout the curve to generate a total of 55% more work over the 300 second period, while maintaining a similar profile to that of the vehicle.
The same protocol was repeated with a second skeletal muscle troponin activator, 1-((1R)-1-methylpropyl)-6-chloro-7-pyrazolylimidazo[4,5-b]pyridin-2-ol (Compound B). Compound B and analogous skeletal muscle troponin activators are disclosed in U.S. Pat. No. 7,989,469. […] 0.7 radian displacement and stimulation frequency calculated to provide 50% of maximum isokinetic tension. Compound B maintained force generation throughout the curve, at almost 50% of vehicle stimulation frequency, to generate the same total work over the 300 second period, while maintaining a similar profile to that of the vehicle.

healthy rats = assay: Fatigue-rotarod running time test; format: in vivo, rat; conditions: between 0.3 mg/kg and 100 mg/kg, FIG. 16
Protocol: The effect of the fast skeletal muscle troponin activator 1-(2-(((trans)-3-fluoro-1-(3-fluoropyridin-2-yl)cyclobutyl)methylamino)pyrimidin-5-yl)-1H-pyrrole-3-carboxamide (Compound C) on muscle fatigue in healthy rats was determined by a rotarod running time test. Compound C was administered to test rats at the doses between 0.3 mg/kg and 100 mg/kg (˜70 nM-28 μM). On the day of the assessment, the animals began by running at an increasing speed from 14-16 RPM over 5 minutes. Rats were then run at a constantly accelerating rate from 12 RPM to 25 RPM over the course of 10 minutes. Time to fall was recorded, with the test being terminated at 600 seconds. The plasma levels were determined at the end of the experiments (not at Cmax). The plasma levels for the indicated doses were determined to be the following: […]

fast skeletal myofibrils = biological target: T1, fast skeletal myofibrils (Homo sapiens, UniProt P02585); conditions: cited from earlier work
T1 construct: from tissue; host or cells: fast skeletal muscle myofibrils
T1 sequence (P02585 whole entry): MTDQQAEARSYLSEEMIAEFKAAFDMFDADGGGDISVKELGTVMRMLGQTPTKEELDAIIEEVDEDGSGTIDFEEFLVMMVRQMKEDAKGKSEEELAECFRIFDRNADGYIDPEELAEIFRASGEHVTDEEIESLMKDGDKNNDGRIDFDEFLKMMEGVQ
T1 sequence (P48788 whole entry partner): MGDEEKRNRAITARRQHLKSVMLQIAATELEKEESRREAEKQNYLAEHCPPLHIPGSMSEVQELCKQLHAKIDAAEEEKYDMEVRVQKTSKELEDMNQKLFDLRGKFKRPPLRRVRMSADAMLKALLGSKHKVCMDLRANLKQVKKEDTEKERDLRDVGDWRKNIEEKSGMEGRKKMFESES
T1 sequence (P45378 whole entry partner): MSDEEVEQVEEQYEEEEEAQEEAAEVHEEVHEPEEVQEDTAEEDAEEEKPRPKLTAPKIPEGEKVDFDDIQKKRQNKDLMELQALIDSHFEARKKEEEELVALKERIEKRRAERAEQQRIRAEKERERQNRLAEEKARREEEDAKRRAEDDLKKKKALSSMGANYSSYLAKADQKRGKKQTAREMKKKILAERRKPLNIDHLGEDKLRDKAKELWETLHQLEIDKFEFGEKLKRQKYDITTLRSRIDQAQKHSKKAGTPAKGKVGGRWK

[2] = test system: skinned fast skeletal muscle fibers from rabbit psoas muscle; conditions: cited from earlier work
[3] = stimulated every six seconds for 15 minutes

SMILES: C#Cc1cnc2nc(O)n(C(CC)CC)c2n1 [Compound A, 6-ethynyl-1-(pentan-3-yl)-1H-imidazo[4,5-b]pyrazin-2-ol]
- average stimulation frequency required to achieve FMax 50% (mean +/- sd) (rat FDB muscle): 20.5 +/− 4.9 Hz
- force at 900 seconds, % of fMax (rat FDB muscle; [3]): 28.4±1.2 % f Max
- force at 900 seconds, % of initial tension (rat FDB muscle; [3]): 53.9±2.1 % of initial tension
- average stimulation frequency for force production similar to pre-dose (rat EDL muscle; 1 mg/kg via duodenal cannula, vehicle 30 Hz): approximately 26 Hz
- EDL muscle fatigue (rat EDL muscle; 1 mg/kg, 600 seconds protocol, FIG. 4): decreased rat EDL muscle fatigue in situ
- isokinetic force frequency relationship ([1]; at 3.1 radians/s): increased in the submaximal range in a dose dependent manner
- force-velocity relationship ([1]; at 30 Hz): increased across all velocities in a dose and velocity dependent manner
- power output ([1]; corresponding to force velocities at 30 Hz): dose dependent increase
- isometric force frequency relationship ([1]; in situ): increased in the submaximal range in a dose dependent manner
- more total work over the 300 second period ([1]; isokinetic fatigue protocol, 1 flexion per second at 3.1 radians/s, 30 Hz, vs vehicle): 55%
- running time vs vehicle controls (healthy rats): significant increases
- myosin ATPase relationship to Ca2+ concentration (fast skeletal myofibrils): leftward-shift
- force-calcium relationship [2]: leftward-shift of the force-calcium relationship
